Measurements reported in ChEMBL document CHEMBL1201862, “PubChem BioAssay data set” (2004).
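Growth conditions: 96-well plates. Treatment: test compound, 48 hours, 5 concentrations. Analysis: linear interpolation between bracketing concentrations; unreached endpoints set to highest concentration. GI50: concentration for 50% inhibition of growth.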 The source made the active and inactive calls. No stated cut-off is given here; in the data, active = GI50 up to about 1.1 µM and inactive = higher.

Experiments:
Experiment in all cases: NCI anticancer screen, dose series, 48 h
HL-60 = test system: HL-60
SK-OV-3 = test system: SK-OV-3
COLO 205 = test system: COLO 205
TK-10 = test system: TK-10
RPMI-8226 = test system: RPMI-8226
OVCAR-3 = test system: OVCAR-3
SK-MEL-28 = test system: SK-MEL-28
HOP-92 = test system: HOP-92
SF-295 = test system: SF-295
SNB-78 = test system: SNB-78
SF-539 = test system: SF-539
SW-620 = test system: SW-620
DMS-273 = test system: DMS-273
MOLT-4 = test system: MOLT-4
M19-MEL = test system: M19-MEL
SN12C = test system: SN12C
OVCAR-8 = test system: OVCAR-8
OVCAR-4 = test system: OVCAR-4
LXFL 529 = test system: LXFL 529
HCC 2998 = test system: HCC 2998
KM-20L2 = test system: KM-20L2
HCT-15 = test system: HCT-15
UACC-257 = test system: UACC-257
DLD-1 = test system: DLD-1
SK-MEL-5 = test system: SK-MEL-5
HT-29 = test system: HT-29
SNB-19 = test system: SNB-19
IGROV-1 = test system: IGROV-1
ACHN = test system: ACHN
KM12 = test system: KM12
RXF 393 = test system: RXF 393
LOX IMVI = test system: LOX IMVI
NCI-H226 = test system: NCI-H226
K562 = test system: K562
UACC-62 = test system: UACC-62
SNB-75 = test system: SNB-75
UO-31 = test system: UO-31
786-0 = test system: 786-0
HCT-116 = test system: HCT-116
U-251 = test system: U-251
Malme-3M = test system: Malme-3M
SF-268 = test system: SF-268
SK-MEL-2 = test system: SK-MEL-2
NCI-H23 = test system: NCI-H23
M14 = test system: M14
A498 = test system: A498
DMS-114 = test system: DMS-114
EKVX = test system: EKVX
CCRF-CEM = test system: CCRF-CEM
HOP-62 = test system: HOP-62
NCI-H460 = test system: NCI-H460
A549 = test system: A549
HOP-18 = test system: HOP-18
OVCAR-5 = test system: OVCAR-5
NCI-H522 = test system: NCI-H522
CAKI-1 = test system: CAKI-1
SR = test system: SR

Measured: GI50

OC1=CN=C(C2CC2)Oc2ccccc21
inactive: HL-60 > 100 µM | SK-OV-3 > 100 µM | COLO 205 > 100 µM | TK-10 > 100 µM | RPMI-8226 > 100 µM | OVCAR-3 > 100 µM | SK-MEL-28 > 100 µM | HOP-92 96.2 µM | SF-295 83.2 µM | SNB-78 > 100 µM | SF-539 > 100 µM | SW-620 > 100 µM | DMS-273 > 100 µM | MOLT-4 > 100 µM | M19-MEL > 100 µM | SN12C > 100 µM | OVCAR-8 > 100 µM | OVCAR-4 85.3 µM | LXFL 529 > 100 µM | HCC 2998 > 100 µM | KM-20L2 > 100 µM | UACC-257 > 100 µM | DLD-1 > 100 µM | SK-MEL-5 > 100 µM | HT-29 > 100 µM | SNB-19 > 100 µM | IGROV-1 > 100 µM | ACHN > 100 µM | KM12 > 100 µM | RXF 393 > 100 µM | LOX IMVI > 100 µM | NCI-H226 15.5 µM | K562 84.9 µM | UACC-62 98.6 µM | SNB-75 > 100 µM | UO-31 25.7 µM | 786-0 > 100 µM | HCT-116 > 100 µM | U-251 > 100 µM | Malme-3M > 100 µM | SF-268 > 100 µM | SK-MEL-2 > 100 µM | NCI-H23 > 100 µM | M14 > 100 µM | A498 > 100 µM | DMS-114 41 µM | EKVX > 100 µM | CCRF-CEM > 100 µM | HOP-62 > 100 µM | NCI-H460 > 100 µM | A549 > 100 µM
> 100 µM: HCT-15

Nc1c(C(=O)N/N=C/c2ccc(Cl)cc2)sc(=S)n1-c1ccccc1
inactive: HL-60 > 100 µM | SK-OV-3 > 100 µM | COLO 205 > 100 µM | TK-10 > 100 µM | HOP-18 > 100 µM | OVCAR-3 > 100 µM | SK-MEL-28 41.9 µM | HOP-92 > 100 µM | SF-295 > 100 µM | SF-539 62.8 µM | SW-620 > 100 µM | M19-MEL > 100 µM | OVCAR-8 > 100 µM | LXFL 529 > 100 µM | HCC 2998 > 100 µM | UACC-257 > 100 µM | DLD-1 > 100 µM | SK-MEL-5 58.2 µM | HT-29 > 100 µM | SNB-19 > 100 µM | IGROV-1 > 100 µM | ACHN > 100 µM | KM12 > 100 µM | OVCAR-5 > 100 µM | NCI-H226 > 100 µM | K562 4.09 µM | UACC-62 > 100 µM | SNB-75 84.7 µM | UO-31 > 100 µM | HCT-116 > 100 µM | U-251 > 10 µM | SF-268 40.8 µM | NCI-H23 > 100 µM | A498 > 100 µM | CCRF-CEM 22.3 µM | HOP-62 > 100 µM | NCI-H460 89.1 µM | A549 > 100 µM | NCI-H522 31.6 µM

O=C(O)C(Cc1ccccc1)N1C(=O)N/C(=C\c2ccc(F)cc2)C1=O (stereo not given)
inactive: HL-60 > 100 µM | SK-OV-3 > 100 µM | COLO 205 > 100 µM | TK-10 > 100 µM | RPMI-8226 > 100 µM | HOP-18 > 100 µM | HOP-92 > 100 µM | SF-295 > 100 µM | SNB-78 18.4 µM | SF-539 > 100 µM | SW-620 > 100 µM | DMS-273 > 100 µM | MOLT-4 > 100 µM | M19-MEL > 100 µM | SN12C > 100 µM | OVCAR-8 > 100 µM | OVCAR-4 > 100 µM | LXFL 529 > 100 µM | HCC 2998 > 100 µM | UACC-257 > 100 µM | DLD-1 > 100 µM | SK-MEL-5 > 100 µM | HT-29 > 100 µM | IGROV-1 > 100 µM | ACHN > 100 µM | KM12 > 100 µM | RXF 393 > 100 µM | OVCAR-5 > 100 µM | LOX IMVI > 100 µM | NCI-H226 > 100 µM | K562 > 100 µM | UACC-62 36.7 µM | SNB-75 > 100 µM | UO-31 > 100 µM | 786-0 > 100 µM | HCT-116 > 100 µM | U-251 > 100 µM | CAKI-1 > 100 µM | SK-MEL-2 > 100 µM | NCI-H23 > 100 µM | M14 > 100 µM | SR > 100 µM | EKVX > 100 µM | CCRF-CEM > 100 µM | HOP-62 > 100 µM | NCI-H460 > 100 µM | A549 > 100 µM | NCI-H522 > 100 µM
> 100 µM: HCT-15
